B1: XAGE-1b protein: XAGE-1b protein (81 amino acids, SEQ ID. No. 1) synthesized by GL Biochem; cancer/testis antigen (protein, listed as Homo sapiens)
chain: MESPKKKNQQLKVGILHLGSRQKKIRIQLRSQCATWKVICKSCISQTPGINLDLGSGVKVKIIPKEEHCKMPEAGEEQPQV

What was measured:
U937 = assay: intake of FAM-conjugated NY-ESO-1 f peptide into antigen-presenting cell; type: cell-based, human; settings: 3 hours after the start of culturing; U937 primed with 20 ng/ml PMA
Protocol: Initially, the inventors of the present invention analyzed the point (A). Specifically, U937, which is a human monocytic leukemia strain, was subjected to priming using 20 ng/ml of PMA, and then cultured with NY-ESO-1 f peptide conjugated with FAM™. Localization of NY-ESO-1 f peptide in U937 was confirmed by observing fluorescence of FAM™ which is a fluorescent pigment.
FIG. 27 is a view illustrating that NY-ESO-1 f peptide was taken into an antigen-presenting cell (U937).

[1] = system: NY-ESO-1-specific CD4-positive T cell clones (E-8A1); assay: antigen presentation by MHC class II (IFN-γ ELISA); type: cell-based, human
Protocol: Specifically, NY-ESO-1-specific CD4-positive T cell clones (E-8A1) were subjected to IFN-γ ELISA by use of self-EBV-B cells as antigen-presenting cells, in the presence of peptide NY-ESO-1 f peptide at a temperature condition of 4° C. or 37° C.
“E/T ratio” of the horizontal axis of FIG. 28 indicates a ratio of co-culturing between Effector (T cell) and Target (EBV-B cell).

[2] = system: CD8-positive T cell clones (TK-f01 2H10); assay: antigen presentation by MHC class I, cross-presentation (IFN-γ ELISA); type: cell-based, human
Protocol: Further, it was confirmed that NY-ESO-1 f peptide is presented as an antigen also by MHC class I, i.e., cross-presented (FIG. 29). Specifically, in a non-serum AIM-V culture medium containing 1 μM of NY-ESO-192-100 short-chain peptide, 1 μM of NY-ESO-191-110 f peptide or 10 μg/ml of recombinant protein, dendritic cells (5×10^5 cells/ml) were cultured and pulsed with antigen, in the presence/absence of 10 μM of cytochalasin B. The cells were washed and then CD8-positive T cell clones (TK-f01 2H10) (5×10^3 cells) were cultured at 37° C. for 24 hours with the dendritic cells (5×10^3 cells) pulsed with the antigens. The amount of production of IFN-γ by antigen stimulation was measured by ELISA.

[3] = system: XAGE-1b-specific IgG antibody; assay: ELISA of XAGE-1b-specific IgG antibody in serums; type: binding, human
Protocol: Full-length XAGE-1b protein (carbonic acid buffer, pH 9.6) with a concentration of 1 μg/ml was immobilized overnight on a 96 well plate (NUNC) at 4° C., and then the plate was washed with a washing solution (PBS/0.1% TWEEN). To the washed plate, 5 FCS/PBS was added and the plate was subjected to blocking at 37° C. for 1 hour. After the blocking, serum diluted 100 times, 300 times, 900 times, or 2700 times was added and the resultant was caused to react at 37° C. for 2 hours. Subsequently, the resultant was washed with the washing solution, and then peroxidase-binding goat anti-human IgG antibody (diluted 5000 times) (Jackson ImmunoResearch Laboratories, Inc.) was added to the resultant and this mixture was caused to react at 37° C. for 1 hour. After the reaction, the resultant was washed with the washing solution and a substrate solution to which hydrogen peroxide was added (solution obtained by dissolving orthophenylendiamine in 0.05M citric acid buffer (pH 5.0)) was added to stain the resultant. After the staining, 6N sulfuric acid was added to stop the reaction, and absorbance (wavelength of 490 nm) thereof was measured using a microplate reader (Bio-Rad Laboratories, Inc.).
Whether or not humoral immune responses to XAGE-1b were present were examined for 200 cases of subjects suffering from non-small-cell lung cancer (including 69 cases of subjects suffering from lung adenocarcinoma in the late stage) who had consulted Kawasaki Medical School Hospital from 2005 to 2009, and for 50 cases of normal healthy subjects serving as controls.
Specifically, whether or not XAGE-1b-specific IgG antibody was present in serums sampled from lung cancer patients was examined by ELISA.
Among them, the lung cancer patients of the very-strong zone, the strong zone, and the weak zone were regarded as serum antibody titer-positive patients.

[4] = system: HLA-B*3501-restricted CD8-positive T cell clones (8C187-4); assay: IFN-γ ELISA with CD8-positive T cell clones 8C187-4; type: cell-based, human; settings: clone 8C187-4
From the text: FIG. 19 is a view showing that peptide 21-36 is a peptide recognized by T cell clones (8C187-4).
As shown in (c) of FIG. 19, when CD8-positive T cell clones (8C187-4) obtained from KLU 187 were stimulated with EBV-B cells expressing HLA-B*3501 as antigen-presenting cells, production of XAGE-1b-specific IFN-γ were detected.

[5] = system: XAGE-1b-specific CD4-positive T cells (4C187-1); assay: natural epitope recognition by CD4 clone T-cells 4C187-1; type: cell-based, human; settings: clone 4C187-1

| Molecule | intake into antigen-presenting cells (U937) | effect of low temperature on reaction ([1]; low temperature (4° C.) blocks intake) | antigen presentation by MHC class II ([1]; self-EBV-B cells as antigen-presenting cells, 4° C. or 37° C.) | effect of cytochalasin B on reaction ([2]; 10 μM of cytochalasin B) | antigen presentation by MHC class I ([2]; dendritic cells pulsed with 1 μM peptide) | antibody reaction to XAGE-1b ([3]; 50 cases of normal healthy subjects) | XAGE-1b serum antibody titer-positive cases ([3]; Non-small-cell lung cancer (n = 200)) | XAGE-1b serum antibody titer-positive cases ([3]; Stage 3B/4 lung adenocarcinoma (n = 69)) | reaction on stimulation with self-dendritic cells pulsed with antigen [4] | reaction on stimulation with self-dendritic cells pulsed with antigen [5] |
| --- | --- | --- | --- | --- | --- | --- | --- | --- | --- | --- |
| NY-ESO-1 f peptide: long-chain peptide made up of 20 amino acids of NY-ESO-1 (YLAMPFATPMEAELARRSLA) | taken into the cells | decrease in a reaction to CD4-positive T cells | presented as an antigen by MHC class II | decrease in a reaction to CD8-positive T cells | presented as an antigen by MHC class I |  |  |  |  |  |
| B1 |  |  |  |  |  | no antibody reaction to XAGE-1b was observed | 20 (10.0%) n (%) | 13 (18.8%) n (%) | production of antigen-specific IFN-γ | production of antigen-specific IFN-γ |
